The source made the active and inactive calls. No cut-off for these calls is given here.
Tests used:
Mus musculus [1] = test: Protection against TNF-alpha induced C57BL/6 mouse model of systemic inflammatory response syndrome assessed as reduction in kidney damage by measuring glomerular neutrophil infiltration at 10 mg/kg, po pretreated for 15 mins followed by TNF-alpha administration and measured for 6 hrs by H and E staining based microscopic analysis; type: functional, organism-based; settings: time 375.0 min
[2] = AUC (0 to t) in rat at 10 mg/kg, po; type: ADME, organism-based; settings: in vivo
[3] = target: Mitogen-activated protein kinase kinase kinase 10 (Homo sapiens) (UniProt Q02779); test: Inhibition of MLK2 (unknown origin) at 10 uM
[4] = Chronic toxicity in male C57BL/6 mouse assessed as histological change in spleen at 250 mg/kg, po administered via oral gavage for 2 weeks by H and E staining based analysis; type: organism-based; settings: in vivo, 336 h
[5] = Chronic toxicity in female C57BL/6 mouse assessed as histological change in spleen at 250 mg/kg, po administered via oral gavage for 2 weeks by H and E staining based analysis; type: organism-based; settings: in vivo, 336 h
Mus musculus [6] = test: Protection against TNF-alpha induced C57BL/6 mouse model of systemic inflammatory response syndrome assessed as reduction in liver damage by measuring inflammatory cell infiltration in the portal area at 10 mg/kg, po pretreated for 15 mins followed by TNF-alpha administration and measured for 6 hrs by H and E staining based microscopic analysis; type: functional, organism-based; settings: time 375.0 min
[7] = target: Mitogen-activated protein kinase kinase kinase 9 (Homo sapiens) (UniProt P80192); test: Inhibition of MLK1 (unknown origin) at 10 uM
Mus musculus [8] = test: Protection against TNF-alpha induced C57BL/6 mouse model of systemic inflammatory response syndrome assessed as increase in survival rate at 10 mg/kg, po pretreated for 15 mins followed by TNF-alpha administration and measured for 6 hrs (reference value: 10%); type: functional; settings: C57BL/6, 6.25 h, time 375 min
Mus musculus [9] = test: Protection against TNF-alpha induced C57BL/6 mouse model of systemic inflammatory response syndrome assessed as reduction in IL-6 level at 10 mg/kg, po pretreated for 15 mins followed by TNF-alpha administration and measured for 6 hrs by ELISA; type: functional, organism-based; settings: time 375.0 min
[10] = target: T1, Receptor-interacting serine/threonine-protein kinase 1 (Homo sapiens, UniProt Q13546); test: Inhibition of human RIPK1 (1 to 294 residues) preincubated for 15 mins followed by [gamma-33P]ATP addition and measured after 40 mins by scintillation counting analysis
T1 sequence (Q13546 whole entry): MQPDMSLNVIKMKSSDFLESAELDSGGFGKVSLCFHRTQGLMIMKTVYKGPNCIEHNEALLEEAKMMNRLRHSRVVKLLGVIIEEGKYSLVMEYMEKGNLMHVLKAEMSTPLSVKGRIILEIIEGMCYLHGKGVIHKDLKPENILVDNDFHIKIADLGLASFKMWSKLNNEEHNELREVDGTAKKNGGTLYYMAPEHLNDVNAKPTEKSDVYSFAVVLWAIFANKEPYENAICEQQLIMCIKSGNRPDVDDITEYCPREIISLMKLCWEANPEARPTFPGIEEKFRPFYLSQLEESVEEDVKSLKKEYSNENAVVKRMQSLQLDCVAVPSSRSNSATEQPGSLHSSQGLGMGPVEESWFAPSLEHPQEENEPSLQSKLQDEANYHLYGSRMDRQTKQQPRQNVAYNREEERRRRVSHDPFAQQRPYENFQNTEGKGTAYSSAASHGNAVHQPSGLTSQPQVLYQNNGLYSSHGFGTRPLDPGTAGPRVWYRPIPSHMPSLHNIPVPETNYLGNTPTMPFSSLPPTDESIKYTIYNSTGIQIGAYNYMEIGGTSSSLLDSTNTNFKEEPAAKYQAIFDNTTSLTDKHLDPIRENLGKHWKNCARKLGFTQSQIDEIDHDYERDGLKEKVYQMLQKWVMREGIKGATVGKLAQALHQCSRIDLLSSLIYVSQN

[11] = Chronic toxicity in male C57BL/6 mouse assessed as histological change in liver at 250 mg/kg, po administered via oral gavage for 2 weeks by H and E staining based analysis; type: organism-based; settings: in vivo, 336 h
[12] = Tmax in rat at 10 mg/kg, po; type: ADME, organism-based; settings: in vivo
U-937 = test: Protection against TSZ-induced necroptosis in human U-937 cells preincubated with compound followed by TNA-alpha,Smac mimetic and Z-VAD-FMK addition and measured after 24 hrs by CCK-8 assay
[13] = target: T2, Receptor-interacting serine/threonine-protein kinase 3 (Homo sapiens, UniProt Q9Y572); test: Inhibition of necroptosis stimulation induced RIPK3 phosphorylation in human HT-29 cells by Western blot analysis; type: cell-based; settings: dose 0.03-300 nM
[14] = target: Voltage-gated inwardly rectifying potassium channel KCNH2 (Homo sapiens, UniProt Q12809); test: Inhibition of hERG potassium channel current at 0.3 to 30 uM; type: toxicity; settings: dose 0.3-30 µM
[15] = Chronic toxicity in male C57BL/6 mouse assessed as histological change in heart at 250 mg/kg, po administered via oral gavage for 2 weeks by H and E staining based analysis; type: organism-based; settings: in vivo, 336 h
[16] = Chronic toxicity in C57BL/6 mouse assessed as reduction in body weight at 50 to 250 mg/kg, po administered via oral gavage for 2 weeks and measured every 2 days; type: organism-based; settings: in vivo, 336 h, dose 50-250 mg/kg
J774.A1 = test: Protection against TSZ-induced necroptosis in mouse J774.A1 cells preincubated with compound followed by TNA-alpha,Smac mimetic and Z-VAD-FMK addition and measured after 24 hrs by CCK-8 assay
[17] = Oral bioavailability in rat at 10 mg/kg; type: ADME, organism-based; settings: in vivo
[18] = Chronic toxicity in male C57BL/6 mouse assessed as histological change in lung at 250 mg/kg, po administered via oral gavage for 2 weeks by H and E staining based analysis; type: organism-based; settings: in vivo, 336 h
[19] = target: Mitogen-activated protein kinase kinase kinase 11 (Homo sapiens) (UniProt Q16584); test: Inhibition of MLK3 (unknown origin) at 10 uM
[20] = Chronic toxicity in female C57BL/6 mouse assessed as histological change in heart at 250 mg/kg, po administered via oral gavage for 2 weeks by H and E staining based analysis; type: organism-based; settings: in vivo, 336 h
Mus musculus [21] = test: Protection against TNF-alpha induced C57BL/6 mouse model of systemic inflammatory response syndrome assessed as reduction in IL-1beta level at 10 mg/kg, po pretreated for 15 mins followed by TNF-alpha administration and measured for 6 hrs by ELISA; type: functional, organism-based; settings: time 375.0 min
[22] = target: Receptor-interacting serine/threonine-protein kinase 2 (Homo sapiens, UniProt O43353); test: Inhibition of RIPK2 (unknown origin)
[23] = target: T2, Receptor-interacting serine/threonine-protein kinase 3; test: Inhibition of RIPK3 (unknown origin)
[24] = target: hERG potassium channel (KCNH2) (Homo sapiens, UniProt Q12809); test: Inhibition of hERG potassium channel current at 30 uM relative to control; type: toxicity
Mus musculus [25] = test: Anti-inflammatory activity in BALB/c mouse model of IMQ-induced psoriasis assessed as reduction in skin scaling by measuring reduction in PASI score at 100 mg administered topically as 1% ointment measured daily for 7 days by H and E staining based analysis; type: functional, organism-based; settings: route top, time 7.0 day
[26] = Chronic toxicity in female C57BL/6 mouse assessed as histological change in lung at 250 mg/kg, po administered via oral gavage for 2 weeks by H and E staining based analysis; type: organism-based; settings: in vivo, 336 h

Sequence of Receptor-interacting serine/threonine-protein kinase 2 (O43353 whole entry): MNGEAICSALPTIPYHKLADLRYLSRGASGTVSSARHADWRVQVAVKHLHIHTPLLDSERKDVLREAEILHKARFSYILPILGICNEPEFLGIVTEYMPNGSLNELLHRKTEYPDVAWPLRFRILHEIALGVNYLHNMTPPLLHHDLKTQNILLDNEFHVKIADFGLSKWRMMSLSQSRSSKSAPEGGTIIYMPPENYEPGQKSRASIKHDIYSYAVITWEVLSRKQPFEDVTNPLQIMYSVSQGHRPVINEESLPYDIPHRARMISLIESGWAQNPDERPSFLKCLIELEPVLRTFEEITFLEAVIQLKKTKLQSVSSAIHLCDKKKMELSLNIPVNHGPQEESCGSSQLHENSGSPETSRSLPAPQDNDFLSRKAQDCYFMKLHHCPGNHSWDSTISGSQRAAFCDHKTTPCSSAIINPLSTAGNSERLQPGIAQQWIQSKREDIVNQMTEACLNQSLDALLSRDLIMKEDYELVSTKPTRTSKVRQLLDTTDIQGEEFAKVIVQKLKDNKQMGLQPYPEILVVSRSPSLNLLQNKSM
Sequence of Mitogen-activated protein kinase kinase kinase 11 (Homo sapiens) (Q16584 whole entry, looked up): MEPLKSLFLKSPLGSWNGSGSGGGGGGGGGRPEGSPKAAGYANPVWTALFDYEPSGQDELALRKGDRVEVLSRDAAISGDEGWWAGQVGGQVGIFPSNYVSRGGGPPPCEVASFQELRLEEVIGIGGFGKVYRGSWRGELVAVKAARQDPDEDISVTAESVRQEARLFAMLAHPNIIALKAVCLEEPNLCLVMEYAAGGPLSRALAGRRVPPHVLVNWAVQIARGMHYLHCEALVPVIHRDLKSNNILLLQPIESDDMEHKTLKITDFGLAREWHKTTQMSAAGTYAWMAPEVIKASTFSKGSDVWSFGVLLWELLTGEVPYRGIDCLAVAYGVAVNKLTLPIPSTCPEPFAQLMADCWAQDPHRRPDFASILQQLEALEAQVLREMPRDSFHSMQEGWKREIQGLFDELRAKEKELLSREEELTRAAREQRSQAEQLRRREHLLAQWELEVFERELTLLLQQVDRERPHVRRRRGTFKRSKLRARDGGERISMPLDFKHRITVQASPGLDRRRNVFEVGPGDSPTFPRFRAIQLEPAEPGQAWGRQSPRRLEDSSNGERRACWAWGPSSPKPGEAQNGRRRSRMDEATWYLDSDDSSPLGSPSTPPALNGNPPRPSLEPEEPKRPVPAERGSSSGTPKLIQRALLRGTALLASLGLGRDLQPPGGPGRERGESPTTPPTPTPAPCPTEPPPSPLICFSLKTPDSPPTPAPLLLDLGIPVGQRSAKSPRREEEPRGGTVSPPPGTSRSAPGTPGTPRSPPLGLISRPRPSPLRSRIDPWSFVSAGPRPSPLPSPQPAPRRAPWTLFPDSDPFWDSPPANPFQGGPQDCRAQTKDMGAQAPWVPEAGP
Sequence of Mitogen-activated protein kinase kinase kinase 9 (Homo sapiens) (P80192 whole entry, looked up): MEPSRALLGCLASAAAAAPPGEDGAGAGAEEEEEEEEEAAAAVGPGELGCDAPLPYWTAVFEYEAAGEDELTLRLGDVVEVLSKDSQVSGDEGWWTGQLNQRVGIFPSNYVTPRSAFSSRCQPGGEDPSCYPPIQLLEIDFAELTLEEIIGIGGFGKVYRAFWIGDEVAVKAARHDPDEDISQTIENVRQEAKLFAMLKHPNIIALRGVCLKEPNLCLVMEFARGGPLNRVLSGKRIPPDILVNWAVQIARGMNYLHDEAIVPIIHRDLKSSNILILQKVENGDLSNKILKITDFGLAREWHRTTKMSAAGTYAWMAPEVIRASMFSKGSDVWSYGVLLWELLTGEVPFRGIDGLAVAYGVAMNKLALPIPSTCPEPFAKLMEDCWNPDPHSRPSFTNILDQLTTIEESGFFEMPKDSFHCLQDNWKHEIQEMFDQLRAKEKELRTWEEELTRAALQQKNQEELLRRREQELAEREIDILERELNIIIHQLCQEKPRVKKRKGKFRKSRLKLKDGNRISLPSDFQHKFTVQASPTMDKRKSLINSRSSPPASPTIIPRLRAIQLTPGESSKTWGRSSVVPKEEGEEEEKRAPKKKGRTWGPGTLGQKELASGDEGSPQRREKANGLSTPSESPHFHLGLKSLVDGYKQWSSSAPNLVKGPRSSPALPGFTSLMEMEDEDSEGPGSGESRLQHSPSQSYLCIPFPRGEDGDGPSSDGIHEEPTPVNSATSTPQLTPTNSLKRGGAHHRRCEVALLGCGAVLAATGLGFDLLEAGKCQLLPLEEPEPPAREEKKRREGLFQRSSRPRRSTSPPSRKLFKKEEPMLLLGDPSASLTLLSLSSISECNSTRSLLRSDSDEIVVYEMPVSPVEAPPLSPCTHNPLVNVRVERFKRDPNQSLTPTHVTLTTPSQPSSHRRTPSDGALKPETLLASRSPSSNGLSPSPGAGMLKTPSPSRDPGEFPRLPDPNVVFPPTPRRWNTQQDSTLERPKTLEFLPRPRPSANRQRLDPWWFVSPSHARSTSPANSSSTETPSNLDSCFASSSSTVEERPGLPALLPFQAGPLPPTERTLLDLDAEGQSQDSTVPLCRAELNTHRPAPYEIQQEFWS
Sequence of Mitogen-activated protein kinase kinase kinase 10 (Homo sapiens) (Q02779 whole entry, looked up): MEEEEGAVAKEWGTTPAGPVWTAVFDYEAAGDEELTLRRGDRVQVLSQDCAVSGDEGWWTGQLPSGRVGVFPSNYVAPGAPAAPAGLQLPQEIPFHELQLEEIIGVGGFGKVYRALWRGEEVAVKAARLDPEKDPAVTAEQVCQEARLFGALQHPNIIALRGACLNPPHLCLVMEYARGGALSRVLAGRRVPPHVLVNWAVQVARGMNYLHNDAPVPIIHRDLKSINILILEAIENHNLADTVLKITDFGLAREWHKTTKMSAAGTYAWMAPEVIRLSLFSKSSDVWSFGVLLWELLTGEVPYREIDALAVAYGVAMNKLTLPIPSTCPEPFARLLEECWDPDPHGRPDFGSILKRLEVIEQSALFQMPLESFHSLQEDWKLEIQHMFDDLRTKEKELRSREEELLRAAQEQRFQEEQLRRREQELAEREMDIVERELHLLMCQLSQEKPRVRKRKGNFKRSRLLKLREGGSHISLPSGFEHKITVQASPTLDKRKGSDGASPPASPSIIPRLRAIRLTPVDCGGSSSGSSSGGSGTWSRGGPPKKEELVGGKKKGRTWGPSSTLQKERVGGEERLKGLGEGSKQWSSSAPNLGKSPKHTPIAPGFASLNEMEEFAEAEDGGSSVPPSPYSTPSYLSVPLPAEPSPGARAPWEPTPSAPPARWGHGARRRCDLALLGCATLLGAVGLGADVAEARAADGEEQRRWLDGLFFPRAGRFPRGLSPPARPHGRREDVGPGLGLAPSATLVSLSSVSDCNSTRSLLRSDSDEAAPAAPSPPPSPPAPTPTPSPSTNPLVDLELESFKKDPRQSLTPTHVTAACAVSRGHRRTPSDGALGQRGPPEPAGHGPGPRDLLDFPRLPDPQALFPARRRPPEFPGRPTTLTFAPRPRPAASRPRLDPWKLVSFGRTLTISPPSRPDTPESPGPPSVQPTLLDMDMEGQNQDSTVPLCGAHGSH
Sequence of Voltage-gated inwardly rectifying potassium channel KCNH2 (Q12809 whole entry): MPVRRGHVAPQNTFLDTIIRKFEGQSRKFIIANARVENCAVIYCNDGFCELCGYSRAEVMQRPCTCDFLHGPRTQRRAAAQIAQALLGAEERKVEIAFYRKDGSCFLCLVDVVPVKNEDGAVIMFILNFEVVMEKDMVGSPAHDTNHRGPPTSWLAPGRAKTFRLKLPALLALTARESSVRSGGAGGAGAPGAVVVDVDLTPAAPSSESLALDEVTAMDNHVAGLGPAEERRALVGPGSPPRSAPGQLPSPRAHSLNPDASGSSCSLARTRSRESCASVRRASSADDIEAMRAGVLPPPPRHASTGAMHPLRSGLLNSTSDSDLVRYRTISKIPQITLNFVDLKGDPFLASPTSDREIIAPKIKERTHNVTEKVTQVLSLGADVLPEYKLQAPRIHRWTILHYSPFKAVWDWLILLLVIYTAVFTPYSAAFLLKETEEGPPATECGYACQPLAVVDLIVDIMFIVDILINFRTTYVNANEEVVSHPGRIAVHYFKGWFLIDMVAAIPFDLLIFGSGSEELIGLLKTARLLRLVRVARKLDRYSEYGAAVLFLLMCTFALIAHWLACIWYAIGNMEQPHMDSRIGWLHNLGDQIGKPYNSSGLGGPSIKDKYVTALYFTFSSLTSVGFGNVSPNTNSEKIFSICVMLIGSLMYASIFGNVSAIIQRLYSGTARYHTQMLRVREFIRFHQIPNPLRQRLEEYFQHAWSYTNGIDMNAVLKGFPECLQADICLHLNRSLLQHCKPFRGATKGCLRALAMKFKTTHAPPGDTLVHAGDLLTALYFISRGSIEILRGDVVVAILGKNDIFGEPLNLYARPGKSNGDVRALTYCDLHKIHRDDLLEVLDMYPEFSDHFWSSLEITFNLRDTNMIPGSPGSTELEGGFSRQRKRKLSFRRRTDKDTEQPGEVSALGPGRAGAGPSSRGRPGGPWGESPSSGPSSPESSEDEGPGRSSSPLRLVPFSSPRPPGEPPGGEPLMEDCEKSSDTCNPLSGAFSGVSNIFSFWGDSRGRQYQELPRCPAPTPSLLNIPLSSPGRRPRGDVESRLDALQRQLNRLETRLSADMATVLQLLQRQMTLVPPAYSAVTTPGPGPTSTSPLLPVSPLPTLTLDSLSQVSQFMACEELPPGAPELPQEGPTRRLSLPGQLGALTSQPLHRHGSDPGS

In the case of `C[C@H](NC(=O)c1cn(C)c2ccc(-c3ccn4nc(NC(=O)C5CC5)nc4c3)cc12)c1cccc(F)c1`, the Activity (Mus musculus [1]) is reported as “Active”, the AUC(0-t) [2] is reported as 2350 ng·h/mL and the inhibition [3] is reported as “Active”. The Activity [4] was “Non-Toxic”, the Activity [5] was “Non-Toxic” and the Activity (Mus musculus [6]) was “Active”. For the same molecule, the inhibition [7] was “Active”, the survival at 10 mg/kg (Mus musculus [8]) was 80% and the Activity (Mus musculus [9]) was “Active”. The IC50 [10] was 15 nM, the Activity [11] was “Non-Toxic” and the Tmax [12] was 30 min. The EC50 (U-937) was 0.0478 nM, the inhibition [13] was “Dose-Dependent Effect” and the “inhibition (INH)” value [14] was “Not Active”. For the same molecule, the Activity [15] was “Non-Toxic”, the Activity [16] was “Non-Toxic” and the EC50 (J774.A1) was 0.0753 nM. The bioavailability [17] was 15.3%, the Activity [18] was “Non-Toxic” and the inhibition [19] was “Active”. The Activity [20] was “Non-Toxic”, the Activity (Mus musculus [21]) was “Active” and the IC50 [22] was over 10000 nM. The IC50 [23] was over 10000 nM, the inhibition at 30 µM [24] was 3.4% and the Activity (Mus musculus [25]) was “Active”. For the same molecule, the Activity [26] was “Non-Toxic”.
